Experimental data taken from the supplement of paper PMC3493320.

The molecules below were run on NCI-H295R (assay: IC50 (antiproliferative, ATP content)). Settings: 48 h.
How it was run: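 Adrenocortical carcinoma cells in 1536-well plates (1500 per well, serum-free DMEM plus ITS, overnight culture) were exposed for 48 h at 37 °C, 5% CO2 to pin-transferred compounds at 8 final concentrations ranging 0.6 nM to 46 µM. ATP content was then read as CellTiter-Glo luminescence and normalised to vehicle and positive-control wells. The IC50 came from logistic curve fits, and any compound lacking a concentration response was recorded as above the top dose.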

SMILES | IC50 [µM]
Oc1c(Br)cc(Br)cc1Br | > 46
NP(N)(=O)NC(=O)c1ccc(F)cc1 | > 46
CC(C)(C)c1ccc(O)cc1 | > 46
O=c1[nH]cc(N(CCCl)CCCl)c(=O)[nH]1 | > 46
[C@@]2\1(\C(=C/C(/C=C/1)=O)CC[C@@H]4[C@@H]2CC[C@@]3([C@](O)(C)CC[C@H]34)C)C | > 46
[O]=[Cd] | > 46
CNc1ccc(C(=O)CC(O)CCC(C)C2OC(=O)CC(O)CC(=O)CC(O)CC(O)CC(O)CC(O)CC3(O)CC(O)C(C(=O)OC)C(CC(O[C@@H]4O[C@H](C)[C@@H](O)[C@H](N)[C@@H]4O)/C=C/C=C/C=C/C=C/C=C/C=C/C=C/C2C)O3)cc1 (stereo partly drawn) | > 46
CN1CCN(C(=O)O[C@H]2c3nccnc3C(=O)N2c2ccc(Cl)cn2)CC1 | > 46
Cl.F/C(COc1ccc2c(c1)[nH]c1ccccc12)=C1\CN2CCC1CC2 | > 46
C=CCOc1ccc(CC(=O)O)cc1Cl | > 46
CCCCc1cc2ccccc2c(OCCN(C)C)n1.Cl | > 46
Cc1cc(O)cc(C)c1Cl | > 46
C=CC(C)(O)CC/C=C(\C)CCC=C(C)C (stereo not drawn) | > 46
O=C(C(CCC)CCC)O[C@@H]1C[C@H](CC2)[N@@+](C)(C)[C@H]2C1.[Br-] | > 46
O=C1CCC(=O)N1CO | > 46
OC[C@@H](O)[C@H](O)[C@H](O)[C@@H](O)CO | > 46
CC=CC=NNC(=O)c1ccncc1 | > 46
CC12CC3CC(C)(C1)CC(N)(C3)C2 | > 46
CCOC(=O)c1cccc(N)c1.CS(=O)(=O)O | > 46
O=C(O)Cc1cccc2ccccc12 | > 46
CS(=O)(=O)c1ccc([C@@H](O)[C@@H](CF)NC(=O)C(Cl)Cl)cc1 | > 46
N=C(N)c1ccc(OCCCCCOc2ccc(C(=N)N)cc2)cc1.O=S(=O)(O)CCO.O=S(=O)(O)CCO | > 46

SMILES | IC50 [µM]
Cc1onc(-c2ccccc2)c1-c1ccc(S(N)(=O)=O)cc1 | > 46
CCCCC(CC)COC(=O)c1ccccc1O (stereo not drawn) | > 46
CCCCC(CC)COC(=O)c1ccc(N(C)C)cc1 (stereo not drawn) | > 46
C[C@]12CCC(=O)C=C1CC[C@@H]1[C@@H]2[C@@H](O)C[C@@]2(C)[C@H]1CC[C@]2(O)C(=O)COP(=O)([O-])[O-].[Na+].[Na+] | > 46
CN1CCC\C(C1)=C(/C2=CC=CS2)C3=CC=CS3 | > 46
CCC1(C)CC(=O)NC1=O (stereo not drawn) | > 46
C=CCN1CCCC1CNC(=O)c1cc(S(N)(=O)=O)cc(OC)c1OC (stereo not drawn) | > 46
CCCCCCCCCC(CC)c1ccc(S(=O)(=O)[O-])cc1.[Na+] (stereo not drawn) | > 46
CC(=O)O[C@H]1CC[C@H]2[C@@H]3CCC4=CC(=O)CCC4=C3C=C[C@]12C | > 46
Cl[C@]1([C@](C)2C=C3)[C@@H](O)C[C@@]([C@]([C@@](CO)=O)(O)[C@H]4C)(C)[C@](C4)([H])[C@@]([H])1CCC2=CC3=O | > 46
CN[C@H]1C[C@@H](N)[C@H](O)[C@@H](O[C@@H]2O[C@H](CO)[C@H](O)[C@@H]3OC4(O[C@H]23)O[C@H]([C@H](N)CO)[C@H](O)[C@H](O)[C@H]4O)[C@@H]1O (stereo partly drawn) | > 46
CN(C(=O)CN(CCO)CC(=O)N(C)C(C)(C)Cc1ccccc1)C(C)(C)Cc1ccccc1 | > 46
CN(C)CC/C=C1/c2ccccc2COc2ccc(CC(=O)O)cc21.Cl | > 46
CC(C)(C)C(=O)OCOC(=O)[C@@H]1N2C(=O)[C@@H](NC(=O)[C@H](N)c3ccccc3)[C@H]2SC1(C)C | > 46
O=C(CCCN1CCC(O)(c2ccc(Br)cc2)CC1)c1ccc(F)cc1 | > 46
COP(=O)(OC)C(O)C(Cl)(Cl)Cl (stereo not drawn) | > 46
CN(C)CCOc1ccccc1Cc1ccccc1.O=C(O)CC(O)(CC(=O)O)C(=O)O | > 46
Cl.O=C(c1ccc(F)cc1)C1CCN(CCn2c(=S)[nH]c3ccccc3c2=O)CC1 | > 46
CNC(=O)c1c(I)c(C(=O)NCC(=O)Nc2c(I)c(C(=O)O)c(I)c(C(=O)NCCO)c2I)c(I)c(N(C)C(C)=O)c1I | > 46
O=C([C@H](C)CS)N(CCC1)[C@@H]1[C@@](O)=O | > 46
CNC[C@H](O)c1cccc(O)c1.Cl | > 46
CCn1cc(C(=O)O)c(=O)c2cc(F)c(N3CCN(C)CC3)cc21.CS(=O)(=O)O | > 46

SMILES | IC50 [µM]
C#C[C@]1(O)CC[C@H]2[C@@H]3CCc4cc(OC)ccc4[C@H]3CC[C@@]21C | > 46
CCN1C(=O)NC(c2ccccc2)C1=O (stereo not drawn) | > 46
CC[N+](C)(C)c1cccc(O)c1.[Cl-] | > 46
OCC(=O)[C@@]2(O)CC[C@H]3[C@@H]4CC\C1=C\C(=O)CC[C@]1(C)[C@H]4[C@@H](O)C[C@]23C | > 46
CC12CCC(C1)C(C)(C)C2=O (stereo not drawn) | > 46
Nc1nc2c(ncn2COCCO)c(=O)[nH]1 | > 46
COc1cnc(NS(=O)(=O)c2ccc(N)cc2)nc1 | > 46
CCc1ccc(C(=O)C(C)CN2CCCCC2)cc1.Cl (stereo not drawn) | > 46
O=C(O[C@@H]2C[C@H](CC3)[N@@+](C)(C)[C@H]3C2)C(CO)C1=CC=CC=C1.[Br-] (stereo partly drawn) | > 46
CCCN1C[C@H](CSC)C[C@@H]2c3cccc4[nH]cc(c34)C[C@H]21.CS(=O)(=O)O | > 46
CON=C(C(=O)N[C@@H]1C(=O)N2C(C(=O)[O-])=C(CSc3nc(C)c(CC(=O)[O-])s3)CS[C@H]12)c1csc(N)n1.[Na+].[Na+] | > 46
Br.CC(Cc1ccc(O)cc1)NCC(O)c1cc(O)cc(O)c1 (stereo not drawn) | > 46
O=C2N1[C@]([C@@]([H])2NC(C(CC)OC3=CC=CC=C3)=O)([H])SC(C)(C)[C@@H]1[C@@](O)=O (stereo partly drawn) | > 46
Cc1cc(N)c2ccccc2[n+]1CCCCCCCCCC[n+]1c(C)cc(N)c2ccccc21.[Cl-].[Cl-] | > 46
C=CCN(C1=NCCN1)c1c(Cl)cccc1Cl | > 46
CC1(O)CCC(C(C)(C)O)CC1 (stereo not drawn) | > 46
NS(=O)(=O)c1cc(-c2nnn[nH]2)c(NCc2cccs2)cc1Cl | > 46
CC(C)(C)CC(C)(C)c1ccc(OCCO)cc1 | > 46
[Cl][In]([Cl])[Cl] | > 46
CC(C)NC(C)Cc1ccc(I)cc1.Cl (stereo not drawn) | > 46
CC(C)(Oc1ccc(Cl)cc1)C(=O)O | > 46
Cc1ncc([N+](=O)[O-])n1CCO | > 46

More lines, now with the values ahead:

IC50 [µM] | SMILES
> 46 | CC1=C(/C=C/C(C)=C/C=C/C(C)=C/C=C/C=C(C)/C=C/C=C(C)/C=C/C2=C(C)CCCC2(C)C)C(C)(C)CCC1
> 46 | CC[C@H]1OC(=O)[C@H](C)[C@@H](O[C@H]2C[C@@](C)(OC)[C@@H](O)[C@H](C)O2)[C@H](C)[C@@H](O[C@@H]2O[C@H](C)C[C@H](N(C)C)[C@H]2O)[C@](C)(O)C[C@@H](C)CN(C)[C@H](C)[C@@H](O)[C@]1(C)O
> 46 | CC(C)(C)C(=O)OCOP(=O)(COCCn1cnc2c(N)ncnc21)OCOC(=O)C(C)(C)C
> 46 | O=[C@@](N[C@@H]([C@@](O)=O)CC2=CC=CC=C2)[C@@H]1CC[C@@H]([C@H](C)C)CC1
> 46 | O=C1c2c(O)cccc2[C@H]([C@@H]2O[C@H](CO)[C@@H](O)[C@H](O)[C@H]2O)c2cc(CO)cc(O)c21
> 46 | CCN(CC)CCOC(=O)C1(c2ccccc2)CCCC1.CCN(CC)CCOC(=O)C1(c2ccccc2)CCCC1.O=S(=O)(O)CCS(=O)(=O)O
> 46 | CN1CCN(c2c(F)cc3c(=O)c(C(=O)O)cn(CCF)c3c2F)CC1
> 46 | O=C1C[C@@H]([C@](N[C@@H](CC3=CNC=N3)C(N2[C@]([H])(C(N)=O)CCC2)=O)=O)NC(N1C)=O
> 46 | C=C1c2cccc(O)c2C(=O)C2=C(O)[C@]3(O)C(=O)C(C(N)=O)=C(O)[C@@H](N(C)C)[C@@H]3[C@@H](O)[C@H]12.Cl
> 46 | O=C(CCN1CCN2CCCC2C1)N1c2ccccc2Sc2ccc(Cl)cc21 (stereo not drawn)
> 46 | CC(O)C(=O)O.CCCCCCCCCCCCCCNCCO
> 46 | Cc1cc(=O)[nH]c(=S)[nH]1
> 46 | CN/C(=N\C#N)NCCSCc1csc(N=C(N)N)n1
> 46 | O=[C@](OC)[C@H]3[C@@]2([H])C[C@](N4C[C@]([H])2C[C@H](OC)[C@@H]3OC)([H])C1=C(CC4)C(C=C5)=C(C=C5OC)N1.Cl
> 46 | Cc1cccc(Nc2ccccc2C(=O)O)c1C
> 46 | Cc1cc(CC(=O)O)c(C)n1-c1ccc(Cl)cc1

IC50 [µM] | SMILES
> 46 | Cl.O=C(c2cn(C)c1ccccc12)[C@H]3CC=4N\C=N/C=4CC3
> 46 | Cc1cnc(C(=O)NCCc2ccc(S(=O)(=O)NC(=O)NC3CCCCC3)cc2)cn1
> 46 | COc1cc(C)nc(-n2nc(C)cc2OC)n1
> 46 | Nc1cc(c(cc1S(=O)(N)=O)S(N)(=O)=O)C(/Cl)=C(/Cl)Cl
> 46 | CC1(C)S[C@@H]2[C@H](NC(=O)C3(N)CCCCC3)C(=O)N2[C@H]1C(=O)O
> 46 | C=CCSSSCC=C
> 46 | O=C1CCC(N2C(=O)c3ccccc3C2=O)C(=O)N1 (stereo not drawn)
> 46 | CC(=O)NC(=O)c1ccccc1O
> 46 | Cc1cccc(C)c1NC(=O)C(C)N.Cl (stereo not drawn)
> 46 | C[C@H](N)[C@H](O)c1cccc(O)c1.O=C(O)[C@@H](O)[C@@H](O)C(=O)O
> 46 | CC(C)(C)c1ccc(C(O)CCCN2CCC(C(O)(c3ccccc3)c3ccccc3)CC2)cc1 (stereo not drawn)
> 46 | CC[N+](CC)(CC)CCOc1cccc(OCC[N+](CC)(CC)CC)c1OCC[N+](CC)(CC)CC.[I-].[I-].[I-]
> 46 | OCCOCCN1CCN(C2=Nc3ccccc3Sc3ccccc32)CC1
> 46 | CC[C@@H]1C(=O)OC[C@@H]1Cc1cncn1C
> 46 | CCCC(O)C(CC)CO (stereo not drawn)
> 46 | O=C(O)CCNC(=O)c1ccccc1
